The structures appear in SMILES notation. Some results are limits rather than exact numbers.

The subject of experiment [1] is genotype A, "Long" strain RSV. The experiment in a line: RSV-A assay (CPE, ATPlite readout in Hep-2 cells). Format: cell-based. To be noted: human respiratory syncytial virus, HEp-2, Hep-2 cells, genotype A "Long" strain RSV, MOI 0.1; read-out: Human RSV-A (“Long” strain) EC50. An outline of the steps:
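Hep-2 cells (8,000/well) received 2-fold serial compound dilutions in duplicate and RSV Long strain at MOI 0.1. After 5 days' incubation, cell health was read as ATP by ATPlite luminescence, with virus-only and uninfected controls defining max and minimum CPE; EC50 reported.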

Experiment [2] relates to recombinant HMPV CAN97-83 (MPV-GFP1). Put plainly: HMPV antiviral assay (MPV-GFP1 eGFP fluorescence in Vero E6 cells). Format: cell-based. To be noted: human metapneumovirus, Vero C1008, 120 h, read-out: HMPV EC50. The protocol: HMPV antiviral activity was evaluated using a recombinant version of HMPV CAN97-83 engineered to contain the coding sequence for enhanced green fluorescence protein (eGFP) in the 3′ end of the virus genome (MPV-GFP1, ViraTree). Vero E6 cells ([…]) were seeded at a density of 12,000 cells/100 μL/well into 96-well cell plates one day prior to the assay. On the day of screening, the cell culture medium was aspirated from the wells and cells were washed twice with serum-free Eagle's Modified Essential Medium (EMEM, ATCC #) containing 1% penicillin-streptomycin (Invitrogen) (SF-EMEM). Cell washes were performed by dispensing 100 μL SF-EMEM per well and immediately aspirating the wash medium from the well. Following the second wash step, serum-free OptiMEM (Invitrogen, Cat No.) (SF-OptiMEM) containing 0.5 μg/mL TPCK-Trypsin (VENDOR) and 1% penicillin-streptomycin was added to the cells at 50 μL/well. Compounds were added into the 96-well plates using a JANUS automated liquid handling system (VENDOR). Compounds were initially diluted 1:50 into an intermediate 96-well plate containing SF-OptiMEM prior to transfer to the assay plate (25 μL/well). Each of the test compounds were tested in duplicate wells at final concentrations starting from 8 μM or 2 μM using ½ stepwise dilutions for a total of 8 points. Virus infection was performed by preparing a working stock of MPV-GFP1 at a multiplicity of infection (MOI) equal to 0.05/25 μL and aliquoting 25 μL of virus inoculum to the compound and positive control wells. SF-OptiMEM was added (25 μL/well) to the appropriate wells to serve as a virus-free negative control for the assay. The final DMSO concentration of all wells is 0.5%. Plates were incubated at 32° C., 5% CO2 for 5 days.
After 5 days incubation, eGFP fluorescence intensity was measured at […] using a Spectramax i3X plate reader (VENDOR). Percent viral inhibition was calculated using the following equation: y=[[…]−(XQ/XP)]×100 Where XQ is the fluorescence intensity measured in a well containing recombinant MPV-GFP1-infected, compound-treated cells and XP is the average fluorescence intensity measured in the wells containing untreated cells infected with recombinant virus. EC50 values were then calculated by non-linear regression using a four parameter curve logistic equation. The curve fit model employed was XLFit Dose Response One Site Model 200: y=(A+(B/(1+((x/C)^D)))) Where A is the minimum y value, B is the maximum y value, C is the log EC50 value, and D is the slope factor. […] EC50 ranges are as follows: A<0.5 μM; B>0.5 μM.

As usually defined, the EC50 is the concentration needed to bring the measured effect to its halfway point. Consider `C[C@]1(C(N)=O)COc2c1cc([C@@](O)(CNC(=O)c1ccc(OC3CC3)c(N3CCC3)c1)C(F)(F)F)nc2-c1ccc(F)cc1` [Example 136], for which the EC50 in experiment [1] is < 0.2 µM; in experiment [2], > 0.5 µM.

With `Cc1ncc(-c2cc(C(=O)NC[C@](O)(c3cc4c(c(-c5ccc(F)cc5)n3)OC[C@]4(C)C(N)=O)C(F)(F)F)ccc2OC2CC2)cn1` [Example 137], the EC50 in experiment [1] was < 0.2 µM; in experiment [2], < 0.5 µM.

With `Cc1cnc(-c2ccc(C(=O)NC[C@](O)(c3cc4c(c(-c5ccc(F)cc5)n3)OC[C@]4(C)C(N)=O)C(F)(F)F)cc2OC2CC2)o1` [Example 179], the figures for the EC50 in experiment [1] and in experiment [2] were < 0.2 µM and > 0.5 µM, respectively.

Regarding `Cc1ncoc1-c1ccc(C(=O)NC[C@](O)(c2cc3c(c(-c4ccc(F)cc4)n2)OC[C@]3(C)C(N)=O)C(F)(F)F)cc1OC1CC1` [Example 180], the EC50 was < 0.2 µM in experiment [1] and > 0.5 µM in experiment [2].

Turning to `COc1cc(C(=O)NC[C@](O)(c2cc3c(c(-c4ccc(F)cc4)n2)OC[C@]3(C)C(N)=O)C(F)(F)F)ccc1-c1ocnc1C` [Example 183], the figures for the EC50 in experiment [1] and in experiment [2] were < 0.2 µM and > 0.5 µM, respectively.

Consider `Cc1nc(-c2ccc(C(=O)NC[C@](O)(c3cc4c(c(-c5ccc(F)cc5)n3)OC[C@]4(C)C(N)=O)C(F)(F)F)cc2OC2CC2)co1` [Example 196], for which the concentration for a half-maximal effect (EC50) in experiment [1] was > 0.2 µM; in experiment [2] it was > 0.5 µM.

Take `COc1cc(C(=O)NC[C@](C)(O)c2cc3c(c(-c4ccc(F)cc4)n2)OC[C@]3(C)C(N)=O)cc2cccnc12` [Example 219]: the EC50 in experiment [1] was < 0.2 µM; in experiment [2], > 0.5 µM.

`C[C@]1(C(N)=O)COc2c1cc([C@@](O)(CNC(=O)c1cc(Cl)c3ncccc3c1)C(F)(F)F)nc2-c1ccc(F)cc1` [Example 221]: the EC50 in experiment [1] was < 0.2 µM; in experiment [2], < 0.5 µM.

As for `COc1cc(C(=O)NC[C@](O)(c2cc3c(c(-c4ccc(F)cc4)n2)OC[C@]3(C)C(N)=O)C(F)(F)F)cc2ccc(C)nc12` [Example 222], the concentration giving a half-maximal response (EC50) is < 0.2 µM in experiment [1] and < 0.5 µM in experiment [2].

On to `Cc1ccc2cc(C(=O)NC[C@](O)(c3cc4c(c(-c5ccc(F)cc5)n3)OC[C@]4(C)C(N)=O)C(F)(F)F)cc(OC3CC3)c2n1` [Example 223], for which the EC50 in experiment [1] was < 0.2 µM; in experiment [2], < 0.5 µM.

In the case of `C[C@]1(C(N)=O)COc2c1cc([C@@](O)(CNC(=O)c1cc(OC3CC3)c3ncccc3c1)C(F)(F)F)nc2-c1ccccc1` [Example 228], the EC50 in experiment [1] is < 0.2 µM; in experiment [2], > 0.5 µM.

In the case of `C[C@]1(C(N)=O)COc2c1cc([C@@](O)(CNC(=O)c1ccc3nnccc3c1)C(F)(F)F)nc2-c1ccc(F)cc1` [Example 230], the EC50 is < 0.2 µM in experiment [1] and > 0.5 µM in experiment [2].

Consider `C[C@]1(C(N)=O)COc2c1cc([C@@](O)(CNC(=O)c1ccc3cnccc3c1)C(F)(F)F)nc2-c1ccc(F)cc1` [Example 232], for which the results for the EC50 in experiment [1] and in experiment [2] were < 0.2 µM and > 0.5 µM, respectively.

As to `Cc1cnc2c(O)cc(C(=O)NC[C@](O)(c3cc4c(c(-c5ccc(F)cc5)n3)OC[C@]4(C)C(N)=O)C(F)(F)F)cc2c1` [Example 252], the results for the concentration giving a half-maximal response (EC50) in experiment [1] and in experiment [2] were < 0.2 µM and > 0.5 µM, respectively.

For `COc1cc(C(=O)NC[C@](O)(c2cc3c(c(-c4ccc(F)cc4)n2)OC[C@]3(C)C(N)=O)C(F)(F)F)cc2cc(C)cnc12` [Example 255], the half-maximal effective concentration (EC50) in experiment [1] was < 0.2 µM; in experiment [2], < 0.5 µM.

With `COc1cc(C(=O)NC[C@](O)(c2cc3c(c(-c4ccc(F)cc4)n2)OC[C@]3(C)C(N)=O)C2CC2)cc2cc(C)cnc12` [Example 256], the figures for the EC50 in experiment [1] and in experiment [2] were < 0.2 µM and < 0.5 µM, respectively.

For `COc1cc(C(=O)NC[C@](O)(c2cc3c(c(-c4ccc(F)c(Cl)c4)n2)OC[C@]3(C)C(N)=O)C(F)(F)F)cc2cc(C)cnc12` [Example 257], the EC50 in experiment [1] was < 0.2 µM; in experiment [2], < 0.5 µM.

On to `CCc1cnc2c(OC)cc(C(=O)NC[C@](O)(c3cc4c(c(-c5ccc(F)cc5)n3)OC[C@]4(C)C(N)=O)C(F)(F)F)cc2c1` [Example 262], for which the EC50 in experiment [1] is < 0.2 µM; in experiment [2], > 0.5 µM.

Consider `C[C@](O)(CNC(=O)c1cc(OC2CC2)c2ncccc2c1)c1cc2c(c(-c3ccc(F)cc3)n1)OC[C@]2(C)C(N)=O` [Example 265], for which the EC50 in experiment [1] was < 0.2 µM; in experiment [2], < 0.5 µM.

`C[C@]1(C(N)=O)COc2c1cc([C@@](O)(CNC(=O)c1ccc3ncccc3c1)C(F)(F)F)nc2-c1ccc(F)cc1` [Example 269]: the half-maximal effective concentration (EC50) in experiment [1] is < 0.2 µM; in experiment [2], < 0.5 µM.

Regarding `C[C@]1(C(N)=O)COc2c1cc([C@@](O)(CNC(=O)c1cc(OC3CC3)c3ncccc3c1)C1CC1)nc2-c1ccc(F)cc1` [Example 280], the values for the 50% effective concentration (EC50) in experiment [1] and in experiment [2] were < 0.2 µM and < 0.5 µM, respectively.

Regarding `C[C@]1(C(N)=O)COc2c1cc([C@@](O)(CNC(=O)c1cc(Cl)c3ncccc3c1)C1CC1)nc2-c1ccc(F)cc1` [Example 281], the EC50 is < 0.2 µM in experiment [1] and < 0.5 µM in experiment [2].

On to `C[C@@H](O)COc1cc(C(=O)NC[C@](O)(c2cc3c(c(-c4ccc(F)cc4)n2)OC[C@]3(C)C(N)=O)C(F)(F)F)cc2cccnc12` [Example 287], for which the 50% effective concentration (EC50) in experiment [1] was > 0.2 µM; in experiment [2], > 0.5 µM.

`C[C@@H](O)COc1ccc(C(=O)NC[C@](O)(c2cc3c(c(-c4ccc(F)cc4)n2)OC[C@]3(C)C(N)=O)C(F)(F)F)cc1OC1CC1` [Example 289]: the values for the concentration for a half-maximal effect (EC50) in experiment [1] and in experiment [2] were < 0.2 µM and > 0.5 µM, respectively.

For the compound `COc1cc(C(=O)NC[C@](O)(c2cc3c(c(-c4ccc(F)cc4)n2)OC[C@]3(C)C(N)=O)C(F)(F)F)ccc1OC[C@@H](C)O` [Example 290], the concentration for a half-maximal effect (EC50) was < 0.2 µM in experiment [1] and < 0.5 µM in experiment [2].

As for `C[C@]1(C(N)=O)COc2c1cc([C@@](O)(CNC(=O)c1cc(Nc3ccncc3)c3ncccc3c1)C(F)(F)F)nc2-c1ccc(F)cc1` [Example 336], the EC50 in experiment [1] is < 0.2 µM; in experiment [2] it was > 0.5 µM.

In the case of `C[C@]1(C(N)=O)COc2c1cc([C@@](O)(CNC(=O)c1cc(Nc3ncccn3)c3ncccc3c1)C(F)(F)F)nc2-c1ccc(F)cc1` [Example 337], the EC50 in experiment [1] is < 0.2 µM; in experiment [2], > 0.5 µM.

As for `C[C@]1(C(N)=O)COc2c1cc([C@@](O)(CNC(=O)c1cc(Nc3cccnc3)c3ncccc3c1)C(F)(F)F)nc2-c1ccc(F)cc1` [Example 339], the half-maximal effective concentration (EC50) in experiment [1] is < 0.2 µM; in experiment [2], > 0.5 µM.

For `C[C@]1(C(N)=O)COc2c1cc([C@@](O)(CNC(=O)c1cc(Nc3ncncn3)c3ncccc3c1)C(F)(F)F)nc2-c1ccc(F)cc1` [Example 340], the EC50 in experiment [1] was < 0.2 µM; in experiment [2] it was > 0.5 µM.

In the case of `C[C@]1(C(N)=O)COc2c1cc([C@@](O)(CNC(=O)c1cc(Nc3cnccn3)c3ncccc3c1)C(F)(F)F)nc2-c1ccc(F)cc1` [Example 341], the half-maximal effective concentration (EC50) was < 0.2 µM in experiment [1] and > 0.5 µM in experiment [2].

For `C[C@]1(C(N)=O)COc2c1cc([C@@](O)(CNC(=O)c1cc(Nc3cncnc3)c3ncccc3c1)C(F)(F)F)nc2-c1ccc(F)cc1` [Example 342], the concentration giving a half-maximal response (EC50) in experiment [1] is < 0.2 µM; in experiment [2] it was > 0.5 µM.

On to `C[C@]1(C(N)=O)COc2c1cc([C@@](O)(CNC(=O)c1cc(-c3cccnc3)c3ncccc3c1)C(F)(F)F)nc2-c1ccc(F)cc1` [Example 350], for which the EC50 in experiment [1] is < 0.2 µM; in experiment [2], > 0.5 µM.

Take `COc1cc(C(=O)NC[C@](O)(c2cc3c(c(-c4ccc(F)cc4)n2)OC[C@]3(C)C(N)=O)C(F)(F)F)cc2ccncc12` [Example 361]: the EC50 is < 0.2 µM in experiment [1] and > 0.5 µM in experiment [2].

With `C[C@]1(C(N)=O)COc2c1cc([C@@](O)(CNC(=O)c1cc(OCC(N)=O)c3ncccc3c1)C(F)(F)F)nc2-c1ccc(F)cc1` [Example 364], the EC50 is < 0.2 µM in experiment [1] and > 0.5 µM in experiment [2].

With `Cc1cnc2c(OCC(N)=O)cc(C(=O)NC[C@](O)(c3cc4c(c(-c5ccc(F)cc5)n3)OC[C@]4(C)C(N)=O)C(F)(F)F)cc2c1` [Example 366], the EC50 in experiment [1] was < 0.2 µM; in experiment [2] it was > 0.5 µM.

For the origin of these results see patent US11505558B1, “Antiviral heterocyclic compounds” (Enanta Pharmaceuticals, Inc., priority 2019, dated 2022).
